The supplement of paper PMC10307832

Tests used:
Test in all cases: relative viability (nuclei count vs DMSO), 5 days (fraction); higher = more cells survive
A-427 = test system: A-427
Summary of the method: (§1)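 For relative viability, nuclei counts in treated wells were divided by those in vehicle wells. Lung cancer cell lines had been pin-tool dosed in 1536-well plates the day after seeding and cultured for 5 days, then fixed and stained in one step (final 0.05% Triton X-100, 1% formaldehyde, 1 ug/ml Hoechst) and imaged at 4×. Doses were one drug alone or a fixed anchor-drug dose plus five library-drug doses (not always all listed) in √10 steps, and values are duplicate-plate medians.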

CAL-12T = test system: CAL-12T
Summary of the method: as §1

COR-L 105 = test system: COR-L 105
Summary of the method: as §1

COR-L23 = test system: COR-L23
Summary of the method: as §1

EPLC-272H = test system: EPLC-272H
Summary of the method: as §1

HOP-62 = test system: HOP-62
Summary of the method: as §1

LCLC-103H = test system: LCLC-103H
Summary of the method: as §1

LXF-289 = test system: LXF-289
Summary of the method: as §1

NCI-H1651 = test system: NCI-H1651
Summary of the method: as §1

NCI-H1975 = test system: NCI-H1975
Summary of the method: as §1

NCI-H1993 = test system: NCI-H1993
Summary of the method: as §1

NCI-H2023 = test system: NCI-H2023
Summary of the method: as §1

NCI-H2085 = test system: NCI-H2085
Summary of the method: as §1

NCI-H2087 = test system: NCI-H2087
Summary of the method: as §1

NCI-H2170 = test system: NCI-H2170
Summary of the method: as §1

NCI-H3122 = test system: NCI-H3122
Summary of the method: as §1

NCI-H596 = test system: NCI-H596
Summary of the method: as §1

NCI-H647 = test system: NCI-H647
Summary of the method: as §1

NCI-H650 = test system: NCI-H650
Summary of the method: as §1

PC-14 = test system: PC-14
Summary of the method: as §1

RERF-LC-KJ = test system: RERF-LC-KJ
Summary of the method: as §1

SK-MES-1 = test system: SK-MES-1
Summary of the method: as §1

O=c1[nH]c2ccccc2n1C1CCN(CCCC(c2ccc(F)cc2)c2ccc(F)cc2)CC1 [Pimozide] + C[C@@H](Oc1cc(-c2cnn(C3CCNCC3)c2)cnc1N)c1c(Cl)ccc(F)c1Cl [Crizotinib] (partner 1 µM)
relative viability (A-427; first compound 0.08 µM): 0.802
relative viability (A-427; first compound 0.253 µM): 0.839
relative viability (A-427; first compound 0.8 µM): 0.896
relative viability (A-427; first compound 2.53 µM): 0.845
relative viability (A-427; first compound 8 µM): 0.878
relative viability (CAL-12T; first compound 0.08 µM): 0.711
relative viability (CAL-12T; first compound 0.253 µM): 0.644
relative viability (CAL-12T; first compound 0.8 µM): 0.557
relative viability (CAL-12T; first compound 2.53 µM): 0.469
relative viability (CAL-12T; first compound 8 µM): 0.473
relative viability (COR-L 105; first compound 0.253 µM): 0.831
relative viability (COR-L 105; first compound 0.8 µM): 0.691
relative viability (COR-L 105; first compound 2.53 µM): 0.645
relative viability (COR-L 105; first compound 8 µM): 0.555
relative viability (COR-L23; first compound 0.08 µM): 0.656
relative viability (COR-L23; first compound 0.253 µM): 0.606
relative viability (COR-L23; first compound 0.8 µM): 0.575
relative viability (COR-L23; first compound 2.53 µM): 0.601
relative viability (COR-L23; first compound 8 µM): 0.575
relative viability (EPLC-272H; first compound 0.08 µM): 0.789
relative viability (EPLC-272H; first compound 0.253 µM): 0.686
relative viability (EPLC-272H; first compound 0.8 µM): 0.908
relative viability (EPLC-272H; first compound 2.53 µM): 0.904
relative viability (EPLC-272H; first compound 8 µM): 0.803
relative viability (HOP-62; first compound 0.08 µM): 1.03
relative viability (HOP-62; first compound 0.253 µM): 0.859
relative viability (HOP-62; first compound 2.53 µM): 0.819
relative viability (HOP-62; first compound 8 µM): 0.991
relative viability (LCLC-103H; first compound 0.08 µM): 1
relative viability (LCLC-103H; first compound 0.253 µM): 0.967
relative viability (LCLC-103H; first compound 0.8 µM): 1.02
relative viability (LCLC-103H; first compound 2.53 µM): 1.07
relative viability (LCLC-103H; first compound 8 µM): 1.12
relative viability (LXF-289; first compound 0.08 µM): 0.791
relative viability (LXF-289; first compound 0.253 µM): 0.775
relative viability (LXF-289; first compound 0.8 µM): 0.79
relative viability (LXF-289; first compound 2.53 µM): 0.774
relative viability (LXF-289; first compound 8 µM): 0.709
relative viability (NCI-H1651; first compound 0.08 µM): 0.801
relative viability (NCI-H1651; first compound 0.8 µM): 0.818
relative viability (NCI-H1651; first compound 2.53 µM): 0.764
relative viability (NCI-H1651; first compound 8 µM): 0.933
relative viability (NCI-H1975; first compound 0.08 µM): 0.919
relative viability (NCI-H1975; first compound 0.253 µM): 1.02
relative viability (NCI-H1975; first compound 0.8 µM): 0.83
relative viability (NCI-H1975; first compound 2.53 µM): 0.882
relative viability (NCI-H1975; first compound 8 µM): 0.73
relative viability (NCI-H1993; first compound 0.08 µM): 0.818
relative viability (NCI-H1993; first compound 0.253 µM): 0.816
relative viability (NCI-H1993; first compound 0.8 µM): 0.816
relative viability (NCI-H1993; first compound 2.53 µM): 0.859
relative viability (NCI-H1993; first compound 8 µM): 0.898
relative viability (NCI-H2023; first compound 0.08 µM): 0.539
relative viability (NCI-H2023; first compound 0.253 µM): 0.615
relative viability (NCI-H2023; first compound 0.8 µM): 0.742
relative viability (NCI-H2023; first compound 2.53 µM): 0.524
relative viability (NCI-H2023; first compound 8 µM): 0.522
relative viability (NCI-H2085; first compound 0.08 µM): 0.897
relative viability (NCI-H2085; first compound 0.253 µM): 0.792
relative viability (NCI-H2085; first compound 0.8 µM): 0.772
relative viability (NCI-H2085; first compound 2.53 µM): 0.712
relative viability (NCI-H2085; first compound 8 µM): 0.775
relative viability (NCI-H2087; first compound 0.08 µM): 0.856
relative viability (NCI-H2087; first compound 0.253 µM): 0.721
relative viability (NCI-H2087; first compound 0.8 µM): 0.604
relative viability (NCI-H2087; first compound 2.53 µM): 0.826
relative viability (NCI-H2087; first compound 8 µM): 0.889
relative viability (NCI-H2170; first compound 0.08 µM): 1.03
relative viability (NCI-H2170; first compound 0.253 µM): 1.14
relative viability (NCI-H2170; first compound 0.8 µM): 1.06
relative viability (NCI-H2170; first compound 2.53 µM): 1.22
relative viability (NCI-H2170; first compound 8 µM): 1.07
relative viability (NCI-H3122; first compound 0.08 µM): 0.27
relative viability (NCI-H3122; first compound 0.253 µM): 0.28
relative viability (NCI-H3122; first compound 0.8 µM): 0.275
relative viability (NCI-H3122; first compound 2.53 µM): 0.301
relative viability (NCI-H3122; first compound 8 µM): 0.279
relative viability (NCI-H596; first compound 0.08 µM): 0.943
relative viability (NCI-H596; first compound 0.253 µM): 1.05
relative viability (NCI-H596; first compound 0.8 µM): 0.928
relative viability (NCI-H596; first compound 2.53 µM): 0.911
relative viability (NCI-H596; first compound 8 µM): 0.831
relative viability (NCI-H647; first compound 0.08 µM): 1.03
relative viability (NCI-H647; first compound 0.253 µM): 1.04
relative viability (NCI-H647; first compound 0.8 µM): 0.988
relative viability (NCI-H647; first compound 2.53 µM): 0.919
relative viability (NCI-H647; first compound 8 µM): 0.544
relative viability (NCI-H650; first compound 0.08 µM): 0.707
relative viability (NCI-H650; first compound 0.253 µM): 0.711
relative viability (NCI-H650; first compound 0.8 µM): 0.74
relative viability (NCI-H650; first compound 2.53 µM): 0.633
relative viability (NCI-H650; first compound 8 µM): 0.802
relative viability (PC-14; first compound 0.253 µM): 0.84
relative viability (PC-14; first compound 0.8 µM): 0.943
relative viability (PC-14; first compound 2.53 µM): 0.934
relative viability (PC-14; first compound 8 µM): 0.978
relative viability (RERF-LC-KJ; first compound 0.08 µM): 0.809
relative viability (RERF-LC-KJ; first compound 0.253 µM): 0.815
relative viability (RERF-LC-KJ; first compound 0.8 µM): 0.764
relative viability (RERF-LC-KJ; first compound 2.53 µM): 0.581
relative viability (RERF-LC-KJ; first compound 8 µM): 0.705
relative viability (SK-MES-1; first compound 0.08 µM): 0.882
relative viability (SK-MES-1; first compound 0.253 µM): 0.928
relative viability (SK-MES-1; first compound 0.8 µM): 0.957
relative viability (SK-MES-1; first compound 2.53 µM): 1.01
relative viability (SK-MES-1; first compound 8 µM): 0.901
